Source: ChEMBL document CHEMBL6083293, “Novel Benzimidazole Derivatives as Potent Inhibitors of Microsomal Prostaglandin E2 Synthase 1 for the Potential Treatment of Inflammation, Pain, and Fever” (J Med Chem, 2024)
Calls of active or inactive are those of the source. The rule behind the calls is not given here.

Tests used:
[1] = Metabolic stability in human liver microsome assessed as intrinsic clearance; format: ADME; conditions: liver microsomes, read-out: CLH
[2] = Metabolic stability in guinea pig liver microsome assessed as intrinsic clearance; format: ADME, Cavia porcellus; conditions: liver microsomes, read-out: CLH
[3] = Metabolic stability in human liver microsome assessed as half life; format: ADME; conditions: liver microsomes
[4] = Metabolic stability in guinea pig liver microsome assessed as half life; format: ADME, Cavia porcellus; conditions: liver microsomes
[5] = Initial plasma concentration in guinea pig at 2 mg/kg, iv; format: ADME, organism-based, Cavia porcellus
[6] = Cytotoxicity against human MDM cells assessed as metabolic activity at 3 uM measured after 48 hrs by MTT assay; format: toxicity, cell-based
[7] = tested on: Cavia porcellus; assay: Anti-pyretic activity against LPS-induced guinea pig pyresis model assessed as increase in rectal temperature at 30 mg/kg, po measured at 180 to 240 mins; format: functional, organism-based; conditions: time 180-240 min
[8] = biological target: T1, Prostaglandin G/H synthase 2 (Homo sapiens) (UniProt P35354); assay: Inhibition of human recombinant COX-2 at 1 uM using arachidonic acid as substrate preincubated for 6 mins followed by substrate addition and measured after 10 mins by RP-HPLC analysis; conditions: time 16.0 min
T1 sequence (whole entry): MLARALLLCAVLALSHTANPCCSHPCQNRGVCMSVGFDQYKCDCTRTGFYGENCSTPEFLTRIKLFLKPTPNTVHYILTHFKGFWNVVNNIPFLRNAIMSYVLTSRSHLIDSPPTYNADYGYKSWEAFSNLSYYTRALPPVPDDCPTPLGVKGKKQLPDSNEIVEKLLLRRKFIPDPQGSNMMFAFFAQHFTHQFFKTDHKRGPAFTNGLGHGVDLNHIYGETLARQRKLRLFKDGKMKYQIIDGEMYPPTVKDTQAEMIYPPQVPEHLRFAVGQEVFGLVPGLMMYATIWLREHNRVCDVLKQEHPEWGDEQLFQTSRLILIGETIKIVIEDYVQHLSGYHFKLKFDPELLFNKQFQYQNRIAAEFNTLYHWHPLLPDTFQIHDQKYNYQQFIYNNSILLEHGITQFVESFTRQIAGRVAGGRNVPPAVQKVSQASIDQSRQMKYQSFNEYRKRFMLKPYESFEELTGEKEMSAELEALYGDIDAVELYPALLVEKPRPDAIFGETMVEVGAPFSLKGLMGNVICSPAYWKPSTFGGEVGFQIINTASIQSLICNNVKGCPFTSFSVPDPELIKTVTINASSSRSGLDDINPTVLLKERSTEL

[9] = biological target: T2, Prostaglandin G/H synthase 1 (Ovis aries) (UniProt P05979); assay: Inhibition of ovine COX-1 at 1 uM using arachidonic acid as substrate preincubated for 6 mins followed by substrate addition and measured after 10 mins by RP-HPLC analysis; conditions: time 16.0 min
T2 sequence (whole entry): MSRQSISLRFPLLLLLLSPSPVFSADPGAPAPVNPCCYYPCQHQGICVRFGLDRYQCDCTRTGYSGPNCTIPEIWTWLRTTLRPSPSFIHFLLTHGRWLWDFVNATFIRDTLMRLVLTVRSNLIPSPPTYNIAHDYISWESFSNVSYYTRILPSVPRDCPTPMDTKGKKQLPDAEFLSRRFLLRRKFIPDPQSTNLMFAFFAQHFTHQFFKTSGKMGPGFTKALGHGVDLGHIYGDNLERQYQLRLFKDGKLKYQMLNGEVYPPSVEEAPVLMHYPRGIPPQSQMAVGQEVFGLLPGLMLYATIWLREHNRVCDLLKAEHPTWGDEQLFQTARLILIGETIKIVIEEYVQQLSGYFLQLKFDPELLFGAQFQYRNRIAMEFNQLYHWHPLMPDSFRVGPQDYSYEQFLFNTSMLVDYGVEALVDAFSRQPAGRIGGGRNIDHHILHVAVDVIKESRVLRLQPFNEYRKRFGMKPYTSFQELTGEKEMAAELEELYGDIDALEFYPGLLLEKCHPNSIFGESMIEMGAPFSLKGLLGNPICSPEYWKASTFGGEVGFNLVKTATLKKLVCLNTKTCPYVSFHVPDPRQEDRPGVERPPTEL

[10] = Toxicity in guinea pig assessed as increase in number of vacuolated hepatocytes at 30 mg/kg, po; format: organism-based, Cavia porcellus; conditions: in vivo
[11] = biological target: T3, Polyunsaturated fatty acid 5-lipoxygenase (Homo sapiens) (UniProt P09917); assay: Inhibition of human recombinant 5-LOX expressed in Escherichia coli BL21(DE3) at 1 uM using arachidonic acid as substrate preincubated with compound for 15 mins followed by substrate and CaCl2 addition measured after 10 mins by RP-HPLC analysis; conditions: time 25.0 min
T3 sequence (whole entry): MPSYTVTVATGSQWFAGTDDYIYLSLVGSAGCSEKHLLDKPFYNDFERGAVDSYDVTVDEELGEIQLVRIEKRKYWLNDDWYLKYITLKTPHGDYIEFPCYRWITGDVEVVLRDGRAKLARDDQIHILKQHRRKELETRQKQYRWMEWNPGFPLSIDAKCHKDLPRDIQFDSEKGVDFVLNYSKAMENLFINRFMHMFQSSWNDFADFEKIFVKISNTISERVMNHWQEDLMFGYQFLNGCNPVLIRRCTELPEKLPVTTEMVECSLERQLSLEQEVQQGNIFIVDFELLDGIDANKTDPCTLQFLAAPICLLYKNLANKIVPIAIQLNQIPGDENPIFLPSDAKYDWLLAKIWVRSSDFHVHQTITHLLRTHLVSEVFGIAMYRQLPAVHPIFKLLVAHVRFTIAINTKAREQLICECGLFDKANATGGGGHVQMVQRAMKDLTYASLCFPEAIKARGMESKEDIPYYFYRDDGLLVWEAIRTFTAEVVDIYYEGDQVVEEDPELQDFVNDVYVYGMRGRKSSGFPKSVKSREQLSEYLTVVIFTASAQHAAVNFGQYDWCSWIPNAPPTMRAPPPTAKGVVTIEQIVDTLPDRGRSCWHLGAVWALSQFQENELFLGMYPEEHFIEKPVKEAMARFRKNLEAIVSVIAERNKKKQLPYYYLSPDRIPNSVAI

[12] = Volume of distribution at steady state in guinea pig at 2 mg/kg, iv; format: ADME, organism-based, Cavia porcellus; conditions: in vivo, read-out: Vdss
[13] = biological target: T4, Arachidonate 5-lipoxygenase-activating protein (Homo sapiens) (UniProt P20292); assay: Inhibition of FLAP in calcium ionophore A23187-stimulated human Neutrophil cells at 1 uM preincubated for 15 mins followed by calcium ionophore A23187 stimulation for 10 mins by RP-HPLC analysis; format: cell-based; conditions: time 25.0 min
T4 sequence (whole entry): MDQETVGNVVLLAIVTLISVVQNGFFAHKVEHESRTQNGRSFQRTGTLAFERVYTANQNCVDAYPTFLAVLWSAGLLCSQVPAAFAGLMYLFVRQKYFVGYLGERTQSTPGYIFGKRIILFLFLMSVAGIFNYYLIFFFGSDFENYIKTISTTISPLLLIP

[14] = Hepatotoxicity in guinea pig assessed as effect on ALT level in plasma at 30 mg/kg, po; format: toxicity, organism-based, Cavia porcellus; conditions: in vivo
[15] = AUC (0 to infinity) in guinea pig at 20 mg/kg, po; format: ADME, organism-based, Cavia porcellus; conditions: in vivo
[16] = Cmax in guinea pig at 20 mg/kg, po; format: ADME, organism-based, Cavia porcellus; conditions: in vivo
[17] = tested on: Cavia porcellus; assay: Anti-inflammatory activity against carrageenan-induced paw edema in guinea pig assessed as inhibition of edema formation at 30 mg/kg, po measured at 120 mins; format: functional, organism-based
[18] = tested on: Cavia porcellus; assay: Anti-inflammatory activity against carrageenan-induced paw edema in guinea pig assessed as inhibition of edema formation at 30 mg/kg, po measured at 240 mins; format: functional; conditions: 4 h
[19] = Clearance in guinea pig at 2 mg/kg, iv; format: ADME, organism-based, Cavia porcellus; conditions: in vivo
[20] = Half life in guinea pig at 20 mg/kg, po; format: ADME, organism-based, Cavia porcellus; conditions: in vivo
[21] = Toxicity in guinea pig assessed as increase in sinusoidal capillary diameter at 30 mg/kg, po; format: organism-based, Cavia porcellus; conditions: in vivo
[22] = Hepatotoxicity in guinea pig assessed as effect on AST level in plasma at 30 mg/kg, po; format: toxicity, organism-based, Cavia porcellus; conditions: in vivo
[23] = Oral bioavailability in guinea pig at 20 mg/kg; format: ADME, organism-based, Cavia porcellus; conditions: in vivo
[24] = Hepatotoxicity in guinea pig assessed as increase in ALP level in plasma at 30 mg/kg, po; format: toxicity, organism-based, Cavia porcellus; conditions: in vivo
[25] = tested on: Cavia porcellus; assay: Anti-hyperalgesic activity against carrageenan-induced guinea pig mechanical hyperalgesia model at 30 mg/kg, po; format: functional, organism-based
[26] = Half life in guinea pig at 2 mg/kg, iv; format: ADME, organism-based, Cavia porcellus; conditions: in vivo
[27] = Cytotoxicity against human MDM cells assessed as LDH release at 3 uM measured after 3 hrs; format: toxicity, cell-based
[28] = tested on: Cavia porcellus; assay: Anti-inflammatory activity against carrageenan-induced paw edema in guinea pig assessed as reduction in paw swelling at 10 mg/kg, po measured at 240 mins; format: functional, organism-based
[29] = biological target: T5, Prostaglandin E synthase (Homo sapiens) (UniProt O14684); assay: Inhibition of mPGES-1 in human M1-like MDM cells assessed as reduction in TXB2 formation at 10 uM; format: cell-based
T5 sequence (whole entry): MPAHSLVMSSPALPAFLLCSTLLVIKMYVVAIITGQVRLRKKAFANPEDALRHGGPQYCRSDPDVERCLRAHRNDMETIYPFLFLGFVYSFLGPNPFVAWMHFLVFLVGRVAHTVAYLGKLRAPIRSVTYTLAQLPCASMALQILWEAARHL

[30] = tested on: Cavia porcellus; assay: Anti-hyperalgesic activity against carrageenan-induced guinea pig mechanical hyperalgesia model at 10 mg/kg, po; format: functional, organism-based
[31] = biological target: T5, Prostaglandin E synthase (Homo sapiens); assay: Inhibition of mPGES-1 in human M1-like MDM cells assessed as reduction in PGE2 formation at 10 uM; format: cell-based
[32] = Hepatotoxicity in guinea pig assessed as increase in ALP level in plasma at 10 mg/kg, po; format: toxicity, organism-based, Cavia porcellus; conditions: in vivo
[33] = Toxicity in guinea pig assessed as increase in number of vacuolated hepatocytes at 10 mg/kg, po; format: organism-based, Cavia porcellus; conditions: in vivo
[34] = Toxicity in guinea pig assessed as increase in sinusoidal capillary diameter at 10 mg/kg, po; format: organism-based, Cavia porcellus; conditions: in vivo

SMILES | microsomal CLint [1] [µL/min/mg] | microsomal CLint [2] [µL/min/mg] | half-life [3] [min] | half-life [4] [min] | C0 [5] [µg/mL] | Vd [12] [L/kg] | AUC(0-inf) [15] [µg·h/mL] | Cmax [16] [µg/mL] | clearance [19] [L/h/kg] | half-life [20] [min] | bioavailability [23] [%] | half-life [26] [min] | other results
CC(C)(C(=O)NCc1ccc(Cl)c(C(=O)Nc2ccc(-c3nc4cc(C(F)(F)F)ccc4[nH]3)cc2)c1)C(F)(F)F | 203 | 13.9 | 6.8 | 103 | – | – | – | – | – | – | – | – | –
O=C(Nc1ccc(-c2nc3cc(C(F)(F)F)ccc3[nH]2)cc1)c1cc(CNC(=O)C2(C(F)(F)F)CC2)ccc1Cl | 45.2 | < 7.5 | 30.7 | 185 | 0.878 | 4.1 | 13.8 | 1.37 | 0.894 | 288 | 61 | 234 | Activity [6]: Non-toxic; Activity [7]: Active; inhibition [8]: Active; inhibition [9]: Active; Activity [10]: Mild_effect; inhibition [11]: Active; inhibition [13]: Active; Activity [14]: Non-toxic; Activity [17]: Active; inhibition in vivo at 30 mg/kg [18]: 60%; Activity [21]: Mild_effect; Activity [22]: Non-toxic; Activity [24]: Non-toxic; Activity [25]: Active; Activity [27]: Non-toxic
CC(C)(C(=O)NCc1ccc(Cl)c(C(=O)Nc2ccc(Cc3nc4cc(C(F)(F)F)ccc4[nH]3)cc2)c1)C(F)(F)F | 27.4 | 28.2 | 51.2 | 49.3 | – | – | – | – | – | – | – | – | –
CC(C)(C)C(=O)NCc1ccc(Cl)c(C(=O)Nc2ccc(-c3nc4cc(C(F)(F)F)ccc4[nH]3)cc2)c1 | 247 | 302 | 5.6 | 4.6 | – | – | – | – | – | – | – | – | –
COc1ccc2c(c1)c(CC(=O)O)c(C)n2C(=O)c1ccc(Cl)cc1 [INDOMETHACIN] | – | – | – | – | – | – | – | – | – | – | – | – | Activity [28]: Active; inhibition [29]: inactive; Activity [30]: Active; inhibition [31]: inactive; Activity [32]: Toxic; Activity [33]: Non-toxic; Activity [34]: Non-toxic
O=C(Nc1ccc(-c2nc3cc(C(F)(F)F)ccc3[nH]2)cc1)c1cc(CNC(=O)C2(C(F)(F)F)CCC2)ccc1Cl | 315 | 163 | 4.4 | 8.5 | 0.733 | 10 | 0.62 | 0.049 | 5.26 | 342 | 16 | 336 | –
